Source: patent publication US9249356B2, “Liquid crystal dye mixture” (PEER+ B.V., priority 2011, dated 2016)

Tests used:
Format in all cases: physicochemical
[1] = Peak absorption and order parameter of Lumogen dyes in nematic liquid crystal
From the text: Light fast rylene type dyes are commercially sold by BASF under the name Lumogen.

[2] = Maximum solubility in nematic liquid crystal mixture MLC6653; conditions: nematic LC (MLC6653 named)
From the text: As is apparent from the table above, these dyes suffer from a low order parameter. The Lumogen IR 765 and Lumogen IR788 have poor fluorescence and have no significant solubility (<<0.1 wt %) in commercial liquid crystal mixture MLC6653 from (Merck Darmstadt), a nematic liquid crystal mixture with positive dielectric anisotropy and a positive delta n.

[3] = Fluorescence / quantum yield
From the text: As a fourth requirement, the fluorescent dichroic dye should have high quantum efficiency. The quantum efficiency is the ratio of emitted photons to absorbed photons of the dye. The higher the quantum efficiency of the dye, the better the dye fluoresces. A good fluorescent dye has a quantum efficiency of at least 0.5, but preferably close to 1.

[4] = Solubility in fluorinated liquid crystal
[5] = Dichroic ratio in a liquid crystal host
From the text: The purpose of these LC-dye mixtures is to be able to control the absorption or fluorescence emission (or both) of light by the dye. A measure of how well the absorption can be controlled is the dichroic ratio of the dye in the LC mixture. The dichroic ratio is the ratio in absorption for light coming in parallel to the absorption axis of the molecule (A∥) versus light traveling perpendicular to the absorption axis (A—|—):
DR=A∥/A—|—. Another way of expressing the same property is the order parameter (S), which is defined as […]

Light fastness = conditions: in words
From the text: As a third requirement, a high light stability of the dye is desirable. A high light stability allows a long lifetime of the devices in high power conditions such as sunlight, lasers or interior lighting.

Peak absorption ([1]; in nematic LC) [nm] | order parameter in nematic LC ([1]; nematic LC) | maximum solubility [2] [wt %] | Compound | quantum yield ([3]; apolar solvents (cyclohexane)) | solubility [4] [wt %] | dichroic ratio [5] | light fastness (Light fastness) | fluorescence ([3]; in words)
577.5 | −0.12 | 0.2 | CC(C)c1cccc(C(C)C)c1N1C(=O)c2cc(Oc3ccccc3)c3c4c(Oc5ccccc5)cc5c6c(cc(Oc7ccccc7)c(c7c(Oc8ccccc8)cc(c2c37)C1=O)c64)C(=O)N(c1c(C(C)C)cccc1C(C)C)C5=O [Lumogen F red 305] | – | – | – | – | –
– | – | – | CCCCCCC(CCCCCC)N1C(=O)c2ccc3c4ccc5c6c(ccc(c7ccc(c2c37)C1=O)c64)C(=O)N(c1ccc(-c2ccc3c4ccc6c7c(ccc(c8cccc2c83)c74)C(=O)N(c2c(C(C)C)cccc2C(C)C)C6=O)cc1)C5=O [PBI-PMI, 2-(4-(2-(2,6-diisopropylphenyl)-1,3-dioxo-2,3-dihydro-1H-benzo[5,10]anthra[2,1,9-def]isoquinolin-8-yl)phenyl)-9-(tridecan-7-yl)anthra[2,1,9-def:6,5,10-d′e′f′]diisoquinoline-1,3,8,10(2H,9H)-tetraone] | 0.77 | > 0.2 | 14 | comparable to the lightfastness of the single perylene bisimide | –
– | – | – | CCCCCCCCCCCCC1(CCCCCCCCCCCC)c2cc(N3C(=O)c4ccc5c6ccc7c8c(ccc(c9ccc(c4c59)C3=O)c86)C(=O)N(C(CCCCCC)CCCCCC)C7=O)ccc2-c2ccc(N3C(=O)c4ccc5c6ccc7c8c(ccc(c9ccc(c4c59)C3=O)c86)C(=O)N(C(CCCCCC)CCCCCC)C7=O)cc21 [PFP] | – | 0.2 | 12 | good | good
